# Source: patent US20260256792A1, “TREATMENT OF CHRONIC SPONTANEOUS URTICARIA BY ADMINISTERING (R)-2-[3-[4-AMINO-3-(2-FLUORO-4-PHENOXY-PHENYL)PYRAZOLO[3,4-D]PYRIMIDIN-1-YL]PIPERIDINE-1-CARBONYL]-4-METHYL-4-[4-(OXETAN-3-YL)PIPERAZIN-1-YL]PENT-2-ENENITRILE” (priority 2023, published 2026)
# Tested on: moderate-to-severe chronic spontaneous urticaria (CSU)
# Assay: Phase 2 CSU study: hives severity score over 7 days (HSS7)
# Format: in vivo, human
# Design: key to HSS7 Change from baseline, Median / HSS7, Median / HSS7, Max / HSS7 Change from baseline, Q1 / HSS7 Change from baseline, Q3 / HSS7 Change from baseline, Max: 7-day sum of daily hive scores, each 0 = none to 3 = >50 hives
# Source text: The study comprises a 12 week, randomized, double-blind, placebo-controlled, multi-center, dose-ranging efficacy and safety phase, followed by a 40 week open label extension (OLE) phase (see FIG. 1).
# The study consists of three phases and an optional OLE phase.
# The UAS is a validated PRO measure. The daily UAS is the sum of the daily Hive Severity Score (HSS, ranging from 0=None to 3=more than 50 hives) and the daily Itch Severity Score (ISS, ranging from 0=None to 3=intense), the 2 key urticaria signs and symptoms which are wheals and itch. The daily UAS scores range from 0 to 6 point/day. Daily UAS scores are summed over 7-day period to create the UAS7, ranging from 0 to 42, and are composed of the HSS7 and ISS7 components. […] Patients were to complete the UAS using the e-diary. The e-diary was to be used once daily on the same time of each day recording of participant's answers to the urticaria activity score over 7 days (UAS7) questionnaire. For participants who entered the OLE phase, their answers to the UAS7 questionnaire were also to be collected from Week 20 to Week24 and from Week 48 to Week 52.
# The following secondary endpoints were to be analyzed using the same approach as for the primary endpoint: • Change from baseline in UAS7 at Week 4 • Change from baseline in UAS7 at Week 12 (for US and US reference countries) • Change from baseline in ISS7 at Week 12 (except US and US reference countries) • Change from baseline in HSS7 at Week 12
# [1] = Week 4, 400 mg BID, Omalizumab-Naïve Population
# [2] = Week 4, 400 mg BID, Patients with Prior Omalizumab Use
# [3] = Week 4, 400 mg QPM, Omalizumab-Naïve Population
# [4] = Week 4, 400 mg QPM, Patients with Prior Omalizumab Use
# [5] = Week 4, 400 mg TID, Omalizumab-Naïve Population
# [6] = Week 4, 400 mg TID, Patients with Prior Omalizumab Use
# [7] = Week 5, 400 mg BID, Omalizumab-Naïve Population
# [8] = Week 5, 400 mg BID, Patients with Prior Omalizumab Use
# [9] = Week 5, 400 mg QPM, Omalizumab-Naïve Population
# [10] = Week 5, 400 mg QPM, Patients with Prior Omalizumab Use
# [11] = Week 5, 400 mg TID, Omalizumab-Naïve Population
# [12] = Week 5, 400 mg TID, Patients with Prior Omalizumab Use
# [13] = Week 6, 400 mg BID, Omalizumab-Naïve Population
# [14] = Week 6, 400 mg BID, Patients with Prior Omalizumab Use
# [15] = Week 6, 400 mg QPM, Omalizumab-Naïve Population
# [16] = Week 6, 400 mg QPM, Patients with Prior Omalizumab Use
# [17] = Week 6, 400 mg TID, Omalizumab-Naïve Population
# [18] = Week 6, 400 mg TID, Patients with Prior Omalizumab Use
compound,measurement,setting,value
"CC(C)(C=C(C#N)C(=O)N1CCC[C@@H](n2nc(-c3ccc(Oc4ccccc4)cc3F)c3c(N)ncnc32)C1)N1CCN(C2COC2)CC1 [rilzabrutinib, (R)-2-[3-[4-amino-3-(2-fluoro-4-phenoxy-phenyl)pyrazolo[3,4-d]pyrimidin-1-yl]piperidine-1-carbonyl]-4-methyl-4-[4-(oxetan-3-yl)piperazin-1-yl]pent-2-enenitrile]","HSS7, Mean (SD)",[1],7.60 (6.00)
same,"HSS7, Median",[1],7.00
same,"HSS7 Change from baseline, Mean (SD)",[1],−6.54 (5.34)
same,"HSS7 Change from baseline, Median",[1],−6.00
same,"HSS7 Percent change from baseline, Mean (SD)",[1],−47.44 (37.17) %
same,"HSS7 Percent change from baseline, Median",[1],−42.86%
same,"HSS7, Mean (SD)",[2],6.80 (8.04)
same,"HSS7, Median",[2],2.00
same,"HSS7 Change from baseline, Mean (SD)",[2],−10.00 (8.34)
same,"HSS7 Change from baseline, Median",[2],−12.00
same,"HSS7 Percent change from baseline, Mean (SD)",[2],−60.22 (47.52) %
same,"HSS7 Percent change from baseline, Median",[2],−88.24%
same,"HSS7 Change from baseline, Mean (SD)",[3],−4.20 (4.74)
same,"HSS7 Change from baseline, Median",[3],−3.00
same,"HSS7 Percent change from baseline, Mean (SD)",[3],−26.30 (29.41) %
same,"HSS7 Percent change from baseline, Median",[3],−16.67%
same,"HSS7, Mean (SD)",[4],10.00 (NC)
same,"HSS7 Change from baseline, Mean (SD)",[4],−10.00 (NC)
same,"HSS7 Change from baseline, Median",[4],−10.00
same,"HSS7 Percent change from baseline, Mean (SD)",[4],−50.00 (NC) %
same,"HSS7 Percent change from baseline, Median",[4],−50.00%
same,"HSS7, Mean (SD)",[5],6.85 (4.96)
same,"HSS7, Median",[5],6.50
same,"HSS7 Change from baseline, Mean (SD)",[5],−7.21 (5.24)
same,"HSS7 Change from baseline, Median",[5],−6.58
same,"HSS7 Percent change from baseline, Mean (SD)",[5],−50.43 (33.03) %
same,"HSS7 Percent change from baseline, Median",[5],−50.69%
same,"HSS7, Mean (SD)",[6],3.92 (4.26)
same,"HSS7, Median",[6],3.17
same,"HSS7 Change from baseline, Mean (SD)",[6],−12.11 (6.81)
same,"HSS7 Change from baseline, Median",[6],−12.42
same,"HSS7 Percent change from baseline, Mean (SD)",[6],−73.06 (22.97) %
same,"HSS7 Percent change from baseline, Median",[6],−76.19%
same,"HSS7, Mean (SD)",[7],8.34 (6.75)
same,"HSS7, Median",[7],7.00
same,"HSS7 Change from baseline, Mean (SD)",[7],−6.01 (5.82)
same,"HSS7 Change from baseline, Median",[7],−7.00
same,"HSS7 Percent change from baseline, Mean (SD)",[7],−43.27 (41.28) %
same,"HSS7 Percent change from baseline, Median",[7],−42.86%
same,"HSS7, Mean (SD)",[8],4.25 (8.50)
same,"HSS7, Median",[8],0.00
same,"HSS7 Change from baseline, Median",[8],−14.50
same,"HSS7 Percent change from baseline, Mean (SD)",[8],−75.00 (50.00) %
same,"HSS7 Percent change from baseline, Median",[8],−100.00%
same,"HSS7, Mean (SD)",[9],9.63 (5.13)
same,"HSS7, Median",[9],8.20
same,"HSS7 Change from baseline, Mean (SD)",[9],−5.12 (5.22)
same,"HSS7 Change from baseline, Median",[9],−3.50
same,"HSS7 Percent change from baseline, Mean (SD)",[9],−32.44 (31.06) %
same,"HSS7 Percent change from baseline, Median",[9],−26.11%
same,"HSS7, Mean (SD)",[10],8.00 (NC)
same,"HSS7, Median",[10],8.00
same,"HSS7 Change from baseline, Mean (SD)",[10],−12.00 (NC)
same,"HSS7 Change from baseline, Median",[10],−12.00
same,"HSS7 Percent change from baseline, Mean (SD)",[10],−60.00 (NC) %
same,"HSS7 Percent change from baseline, Median",[10],−60.00%
same,"HSS7, Mean (SD)",[11],6.49 (5.14)
same,"HSS7, Median",[11],6.00
same,"HSS7 Change from baseline, Mean (SD)",[11],−7.57 (5.71)
same,"HSS7 Change from baseline, Median",[11],−7.00
same,"HSS7 Percent change from baseline, Mean (SD)",[11],−52.28 (34.93) %
same,"HSS7 Percent change from baseline, Median",[11],−50.00%
same,"HSS7, Mean (SD)",[12],3.42 (4.45)
same,"HSS7, Median",[12],2.50
same,"HSS7 Change from baseline, Mean (SD)",[12],−12.61 (7.49)
same,"HSS7 Change from baseline, Median",[12],−12.00
same,"HSS7 Percent change from baseline, Mean (SD)",[12],−75.12 (24.22) %
same,"HSS7 Percent change from baseline, Median",[12],−75.37%
same,"HSS7, Mean (SD)",[13],8.17 (6.62)
same,"HSS7, Median",[13],7.00
same,"HSS7 Change from baseline, Mean (SD)",[13],−6.17 (6.01)
same,"HSS7 Change from baseline, Median",[13],−6.42
same,"HSS7 Percent change from baseline, Mean (SD)",[13],−43.56 (44.25) %
same,"HSS7 Percent change from baseline, Median",[13],−47.73%
same,"HSS7, Mean (SD)",[14],5.97 (7.25)
same,"HSS7, Median",[14],3.50
same,"HSS7 Change from baseline, Mean (SD)",[14],−8.83 (9.41)
same,"HSS7 Change from baseline, Median",[14],−12.00
same,"HSS7 Percent change from baseline, Mean (SD)",[14],−50.00 (62.36) %
same,"HSS7 Percent change from baseline, Median",[14],−83.33%
same,"HSS7, Mean (SD)",[15],9.94 (5.76)
same,"HSS7, Median",[15],8.28
same,"HSS7 Change from baseline, Mean (SD)",[15],−5.20 (5.64)
same,"HSS7 Change from baseline, Median",[15],−4.50
same,"HSS7 Percent change from baseline, Mean (SD)",[15],−33.60 (35.00) %
same,"HSS7 Percent change from baseline, Median",[15],−37.09%
same,"HSS7, Mean (SD)",[16],8.00 (NC)
same,"HSS7, Median",[16],8.00
same,"HSS7 Change from baseline, Mean (SD)",[16],−12.00 (NC)
same,"HSS7 Change from baseline, Median",[16],−12.00
same,"HSS7 Percent change from baseline, Mean (SD)",[16],−60.00 (NC) %
same,"HSS7 Percent change from baseline, Median",[16],−60.00%
same,"HSS7, Mean (SD)",[17],6.78 (5.55)
same,"HSS7, Median",[17],6.00
same,"HSS7 Change from baseline, Mean (SD)",[17],−7.22 (6.24)
same,"HSS7 Change from baseline, Median",[17],−7.00
same,"HSS7 Percent change from baseline, Mean (SD)",[17],−49.49 (37.97) %
same,"HSS7 Percent change from baseline, Median",[17],−46.15%
same,"HSS7, Mean (SD)",[18],2.83 (4.62)
same,"HSS7, Median",[18],1.00
same,"HSS7 Change from baseline, Mean (SD)",[18],−13.19 (6.97)
same,"HSS7 Change from baseline, Median",[18],−13.00
same,"HSS7 Percent change from baseline, Mean (SD)",[18],−81.39 (23.52) %
same,"HSS7 Percent change from baseline, Median",[18],−91.50%
